Data set [1] concerns rat peritoneal mesothelial cells. Description: Cytotoxicity study, LDH release. It is filed as cell-based. The conditions noted are these: rat PMCs, 72 hours, FIG. 5. How it is done: The cells were treated with carrier or aliskiren for 72 hours and cell viability was evaluated quantifying the LDH released into the culture medium. The data is expressed as mean±SEM, n=12. * p<0.05 compared to the control (carrier).
Rat peritoneal mesothelial cells were isolated by enzymatic digestion in accordance with protocols described in Hjelle J T, Golinska B T, Waters D C, et al. Perit Dial Int 1989; 9: 341-7. Briefly, female rats weighing 200-400 g of the Spragle-Dawley strain were sacrificed pursuant to Royal Decree 1201/2005, of 10 Oct., on protection of animals used for experimental and other scientific purposes. The abdominal cavity was quickly opened and the abdominal wall (peritoneum and smooth muscle) extracted under sterile conditions. […]
To this end, the cells were seeded on 24-well plates and exposed to the peritoneal dialysis solutions object of the present invention to study their toxicity. The toxic effects were evaluated measuring cell membrane rupture and the consequent release of LDH to the supernatant through the CytoTox96® kit (Promega). […] Absorbance of the lysate and cell supernatant was obtained using a microplate spectrophotometer at a wavelength of 490 nm, following the manufacturer's instructions.
A general note: LDH in the medium is a marker of cell lysis.

The test system of data set [2] is caspase-3. As to the kind of experiment: Caspase-3 activity (Z-DEVD-AFC fluorescence). It is filed as cell-based. The conditions noted are these: rat PMCs, D-glucose 50 mM, 24 hours, aliskiren 10-100 μM, FIG. 7. How it is done:
The cells were incubated in D-glucose at 50 mM for 24 hours in the presence or absence of aliskiren (10-100 μM), and caspase-3 activity was measured as described in Material and Methods. The data is expressed as mean±SEM, n=3. * p<0.05 compared to the control (C). # p<0.05 compared to untreated cells (control). # p<0.05, compared to cells treated with D-glucose in the presence of carrier (0).
Rat peritoneal mesothelial cells were isolated by enzymatic digestion in accordance with protocols described in Hjelle J T, Golinska B T, Waters D C, et al. Perit Dial Int 1989; 9: 341-7. Briefly, female rats weighing 200-400 g of the Spragle-Dawley strain were sacrificed pursuant to Royal Decree 1201/2005, of 10 Oct., on protection of animals used for experimental and other scientific purposes. […]
In order to determine caspase-3 activity (Posadas I, Vellecco V, Santos P, et al. Br J Pharmacol 2007; 150: 577-85), the rat mesothelial cells were seeded on 6-well plates until reaching a confluence of 80%. […] After incubation, the samples were centrifuged at 13,000 rpm for 15 minutes at 4° C. and the protein concentration in the supernatants was determined using the Bradford method, following the standard protocol. […] Fluorescence emission was determined on a spectrofluorimeter (Tecan, Austria) at an excitation wavelength of 400 nm and an emission wavelength of 505 nm.

Molecules are shown by their SMILES.

`COCCCOc1cc(C[C@@H](C[C@H](N)[C@@H](O)C[C@H](C(=O)NCC(C)(C)C(N)=O)C(C)C)C(C)C)ccc1OC` [aliskiren]: the “concentration at which toxicity with respect to mesothelial cells is shown (LDH released)” value in data set [1] was ≥ 1 mM. The activation of caspase result in data set [2] is listed as “prevented”.

The values are drawn from patent US20130065964A1, “PERITONEAL DIALYSIS SOLUTION” (UNIVERSIDAD DE CASTILLA LA MANCHA, priority 2010, published 2013).
